Assay [1] concerns ovariectomized (OVX) Sprague-Dawley rats. In words: Macroscopic measurements (genital hiatus, vaginal length) after 2 weeks vaginal suppositories. Format: in vivo, rat. As to conditions: vaginal suppositories 2 weeks (20 μM zinc sulfate, 10 nM GW501516, 0.01% estradiol), mean±SD. The method, then: (§1) Ten to 12-weeks old female ovariectomized (OVX) Sprague-Dawley rats were utilized for the experiments. The animals were acclimatized to the environmental conditions before starting the experiment. The animals were housed individually and were allowed free access to water and rodent food. […] The suppositories were prepared according to the fusion method, using a polypeg suppository base ([…]., USA). […] Using a microwave, the suppository base was melted in a small beaker for 3 min and then transferred and kept into a water bath at a temperature of 55° C. The proper amount of above reagent was added to the liquefied base and meticulously crushed with a smooth rounded-end glass rod for about 20 min to make the solution to be even and clear. A pipette tip was used to suck some amount of solution and push it into a plastic tube with a diameter of 3.5 mm, and the tube was immediately left on the flat surface of an ice bucket. The suppository turned to white in color when it was solid. The moulded suppository was then pushed out of the tube using a round rod. […] After 30 min of cooling at room temperature, the suppositories were stored at 4° C. in a closed chamber until use. They were left to reach room temperature before use. The day after the last treatment the rats were overnight fasted and then sacrificed. Macroscopic measurement (genital hiatus, vaginal length) were taken and the vagina was dissected out carefully to avoid any injury to the vagina. The mid section of the vagina was utilized for histology (H and E stain, Masson's trichrome stain) and immunofluorescence and the rest of the vagina was used for RNA extraction and RT-PCR.

The test system is the same in assay [2]. In words: Vaginal histology and histomorphometry after 2 weeks vaginal suppositories. As to conditions: vaginal suppositories 2 weeks. Format: in vivo, rat. The method, then: as §1, with “RT-PCR. […] For each animal, a 4 μm-thick paraffin section was cut and stained with haematoxylineosin and with Masson's trichrome stain for morphological examination. […] The cornification was determined by the presence of a keratin layer on the vaginal epithelium. Measurements of the different vaginal layers were performed on the fifth segment of the vagina, which is approximately halfway between the middle region and the portio vaginalis uteri. […] Images were captured with a color digital camera and quantified using ImageJ software was used. […] The thickness of the lamina propria was obtained by deducting the thickness of the epithelium and muscularis from total vaginal thickness.” for “RT-PCR.”

In assay [3] the test system is rat vaginal Col1a1, Col3a1, Col5a1 mRNA. The assay is described as follows: qRT-PCR of vaginal collagen gene expression after 2 weeks vaginal suppositories. It counts as in vivo. As to conditions: OVX rats, vaginal suppositories 2 weeks, mean±SD. Background: Real-time PCR tracks product formation cycle by cycle.
Description: Ten to 12-weeks old female ovariectomized (OVX) Sprague-Dawley rats were utilized for the experiments. The animals were acclimatized to the environmental conditions before starting the experiment. The animals were housed individually and were allowed free access to water and rodent food. Two weeks after the ovariectomy rats (n=36) were divided into five groups: control (receiving placebo suppositories, n=8), Zinc (receiving zinc sulfate containing suppositories, n=8), GW (receiving GW501516 containing suppositories, n=8), Zinc with GW (receiving Zinc with GW 501516 containing suppositories, n=8) and Estradiol (receiving estradiol containing suppositories, n=4).
The suppositories were prepared according to the fusion method, using a polypeg suppository base (MEDISCA, N.Y., USA). […] Using a microwave, the suppository base was melted in a small beaker for 3 min and then transferred and kept into a water bath at a temperature of 55° C. The proper amount of above reagent was added to the liquefied base and meticulously crushed with a smooth rounded-end glass rod for about 20 min to make the solution to be even and clear. A pipette tip was used to suck some amount of solution and push it into a plastic tube with a diameter of 3.5 mm, and the tube was immediately left on the flat surface of an ice bucket. The suppository turned to white in color when it was solid. The moulded suppository was then pushed out of the tube using a round rod. The moulded suppository was cut using a razor blade to a length of 1.2 cm each, which was calibrated to equal a volume of 50±5 μl per each suppository. After 30 min of cooling at room temperature, the suppositories were stored at 4° C. in a closed chamber until use. They were left to reach room temperature before use.
Total RNA was isolated from 20 mg of vaginal rat tissue in each experimental rat group using the RNeasy Mini kit (Qiagen) according to the manufacturer's specifications. For each total RNA preparation, DNase digestion was performed to remove contaminating genomic DNA. Total RNA samples from each tissue were quantified and evaluated for RNA integrity by the Agilent Bioanalyzer 2100 (Applied Biosystems, Foster City Calif., USA). Following RNA extraction, cDNA was reverse transcribed from ˜500 ng of each total RNA preparation using the qScript cDNA synthesis kit (Quanta Biosciences, Gaithersburg Md., USA). Finally, cDNA samples were used to perform gene expression analysis by qRT-PCR using SYBR Green technology on the RealPlex EP Mastercycler (Eppendorf, Germany) of five genes with known roles in vaginal tissue reconstruction: Collagen IaI (col 1a1), Collagen IIIaI (col 3a1), Collagen VaI (col 5a1), Elastin (eln), Tensin I (tns-1). Glyceraldehyde-3 Phosphate Dehydrogenase (gapdh) was used as a positive control to normalize the expression of each gene. Each qRT-PCR reaction was run in triplicate using Perfecta SYBR Green Supermix (Quanta Biosciences, Gaithersburg Md., USA) in 25 μL reaction volumes using a final concentration of 300 nM forward and reverse primers. For each of the genes analyzed in this study, primers were designed using Primer-BLAST software (NCBI) and synthesized by IDT Technologies (San Diego, Calif.).
Assay [4] deals with rat vaginal Collagen I, Collagen III, Collagen V protein. The assay is described as follows: Immunofluorescence of vaginal collagen protein expression after 2 weeks vaginal suppositories. As to conditions: OVX rats, vaginal suppositories 2 weeks, mean±SD. It counts as in vivo. As for the experimental part:
as §1, with “RT-PCR. Samples were incubated with three different antibodies, collagen I, III and anti-actin or collagen I and V and anti-actin. Frozen tissues samples were cut into sections of 6 μm and fixed for 10 min with acetone, followed by five washes of phosphate-buffered saline (PBS). […] After that, sections were incubated with the secondary antibody for one hour in the dark, at room temperature, followed by five washes of PBS. […] Alexa Fluor 405 Goat Anti-Mouse IgG (1:400) (Invitrogen); Cy3-AffiniPure Goat Anti-Mouse IgM (1:400) (Jackson ImmunoResearch Laboratories, West Grove, Pa.); Alexa Fluor 647 (1;200) phalloidin (Invitrogen). […] Four images were obtained per section. Images were capture with an Orca II-ERG 12 bitt CCD camera in a Zeiss Apotome microscope with a 20× objective. The data was analyzed using Matamorph version 7.7.4 software. Results are represented as mean pixel intensity ratios per square area.” for “RT-PCR.”

Take `C[C@]12CC[C@@H]3c4ccc(O)cc4CC[C@H]3[C@@H]1CC[C@@H]2O` [Estradiol]: in assay [1] (placebo 12.6±1.1), the “genital hiatus (distance between the external urethral meatus and the mid anus)” value amounted to 16.0±1.4 mm. Also, in assay [1] (placebo 14.1±1.1), the vaginal length came to 18.7±1.5 mm. In assay [2] (mean±SD, placebo 57±18), this molecule yielded a vaginal epithelial thickness of 140±54 μm. In assay [2] (mean±SD, placebo 121±44), the vaginal muscularis thickness is 124±53 μm. In assay [2] (mean±SD, placebo 179±71), the “vaginal lamina propria thickness” value worked out at 152±80 μm. Moreover, the “vaginal thickness (all three layers of the vagina)” value in assay [2] (mean±SD, placebo 358±86) is reported as 417±82 μm. In addition, in assay [2] (placebo 0%), the “vaginal epithelial cornification rate” value is reported as 100%. In addition, the “lamina propria collagen fiber compactness” value in assay [2] (scale 0-5 (0=loose, 5=tight), mean±SD, placebo 4.5±0.6) was 1.6±0.6 relative units. The “ratio of vaginal Col1a1 to Col3a1 mRNA expression” value in assay [3] (placebo 0.78±0.2) is listed as 0.70±0.4 relative units. Moreover, in assay [3] (placebo 4.3±1.9), the “ratio of vaginal Col1a1 to Col5a1 mRNA expression” value turned out to be 5.3±1.2 relative units. Besides, the “ratio of vaginal Collagen I to Collagen III protein expression” value in assay [4] (placebo 1.16±0.2) was determined as 1.08±0.2 relative units. Besides, the “ratio of vaginal Collagen I to Collagen V protein expression” value in assay [4] (placebo 1.28±0.3) is listed as 1.74±0.5 relative units.

The values above are taken from US9375450B2, “Vaginal tissue rejuvenation compositions and methods” (priority 2011, dated 2016).
